# Reference: patent US20260284275A1, “NANOGEL COMPRISING BIOACTIVE MOLECULES, THERAPEUTIC MOLECULES OR DRUGS TOGETHER WITH AN AMPHIPHILIC MOLECULE” (CM4CURE S.A., priority 2023, published 2026)
# What was measured:
# [1] = tested on: S. aureus (ATCC BAA-1556, MRSA); assay: Real-time microcalorimetry (Calscreener) of bacterial growth in TSB; assay type: cell-based; settings: for bacterial growth (heat flow): 24 h, 37° C.
# Experimental: S. aureus (ATCC BAA-1556, MRSA) was grown overnight in TSB (tryptic soy broth) medium, before being diluted 1×10^4 fold in fresh TSB. Subsequently […] aliquots of diluted bacteria suspensions were supplemented with 10 μg/mL and 20 μg/mL of respectively triafluocyl (Polpharma) alone or in the mixture with TPGS (MedChemExpress LLC (Europe)) (1:1 w/w). Both Triafluocyl and TPGS were prepared in absolute ethanol as already mentioned in the above examples and were refrigerated as master stocks in absolute ethanol. Triafluocyl, TPGS or ethanol (0.6% final conc.) as a vehicle were added to the bacterial suspensions to obtain the concentrations (10 μg/mL and 20 μg/m) followed by a brief vortexing. Bacterial aliquots were then distributed in the dedicated non-activated inserts of a 48-well plate and grown for 24 h under static conditions at 37° C. using Calscreener technology to measure bacterial growth and metabolic activity in Real-Time as described in https://cordis.europa.eu/project/id/784514.
# In FIG. 6, the real-time microcalorimetric measurements of bacterial metabolic activity is expressed as the heat flow and represents bacterial growth in TSB medium. Solid line stands for control bacteria with a vehicle (0.6% ethanol); thick dashed line—bacteria treated with 10 μg/mL of triafluocyl; thick dotted line—bacteria treated with 20 μg/mL of triafluocyl; thin dashed line—bacteria treated with both triafluocyl and TPGS (10 μg/mL:10 μg/mL); thin dotted line—bacteria treated with both triafluocyl and TPGS (20 μg/mL:20 μg/mL).
# [2] = tested on: S. aureus (MRSA, ATCC 6538); assay: Real-time microcalorimetry of bacterial growth in liquid medium; assay type: cell-based; settings: Fluometacyl 10 or 20 μg/mL with hydroxypropyl-β-cyclodextrin 42 μg/mL, 24 h
# Experimental: S. aureus (MRSA, ATCC 6538) was grown overnight in TSB (tryptic soy broth) medium, before being diluted 1×10^7 fold in the fresh TSB. Subsequently […] aliquots of diluted bacteria suspensions were supplemented with Fluometacyl® (10 or 20 μg/mL) or mixture of Fluometacyl® (10 or 20 μg/mL) and hydroxypropyl-β-cyclodextrin (42 μg/mL). Subsequently 300 μL of suspensions were placed into the dedicated non-activated inserts of a 48-well plate and allowed for growing for 24 h under static conditions at 37 C using Calscreener.
# Curve A—control bacterial growth for S. aureus MRSA 10^−6; Curve B—Bacteria with Fluometacyl® (10 μg/mL); Curve C—Bacteria with Fluometacyl® (10 μg/mL) and hydroxypropyl-β-cyclodextrin (42 μg/mL); Curve D—Bacteria with Fluometacyl® (20 μg/mL); Curve E—Bacteria with Fluometacyl® (20 μg/mL) and hydroxypropyl-β-cyclodextrin (42 μg/mL).
molecule,measurement,setting,value
CCCSc1nc(N[C@@H]2C[C@H]2c2ccc(F)c(F)c2)c2nnn([C@@H]3C[C@H](OCCO)[C@@H](O)[C@H]3O)c2n1 [Triafluocyl],bacterial growth (heat flow),[1]; 10 μg/mL,significantly reduces
same,bacterial growth (heat flow),[1]; 20 μg/mL,fully inhibited
CC(O)COC[C@H]1O[C@@H]2O[C@H]3[C@H](O)[C@@H](O)[C@@H](O[C@H]4[C@H](O)[C@@H](O)[C@@H](O[C@H]5[C@H](O)[C@@H](O)[C@@H](O[C@H]6[C@H](O)[C@@H](O)[C@@H](O[C@H]7[C@H](O)[C@@H](O)[C@@H](O[C@H]8[C@H](O)[C@@H](O)[C@@H](O[C@H]1[C@H](O)[C@H]2O)O[C@@H]8COCC(C)O)O[C@@H]7COCC(C)O)O[C@@H]6COCC(C)O)O[C@@H]5COCC(C)O)O[C@@H]4COCC(C)O)O[C@@H]3COCC(C)O (stereo partly drawn) [hydroxypropyl-β-cyclodextrin],effect on the antibacterial activity of Fluometacyl in solution,[2],didn't impair
D-α-tocopheryl polyethylene glycol succinate [TPGS],effect of added TPGS on the inhibitory effect of triafluocyl on bacterial growth,"[1]; TPGS at equivalent amount (1:1 w/w) to triafluocyl, 10 and 20 μg/mL",significantly reduced the inhibitory effect
